Source: US6914045B2, “Glycopeptide antibiotics” (Wyeth Holdings Corporation, priority 2001, dated 2005)

Tests used:
Enterococcus sp. = test: in vitro antibacterial evaluation, MIC by broth dilution; format: cell-based; settings: broth dilution, 18 hours at 35° C.
In short: (§1)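 MIC, the lowest antibiotic concentration preventing growth, was read across 64-0.06 μg/mL with 5×10^5 CFU/mL inoculum. Method followed NCCLS M7-A2 broth dilution using Mueller-Hinton II; Gram-positive strains covered recent methicillin-, penicillin- and/or vancomycin-resistant clinical isolates.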

Escherichia coli = test: as above; format: cell-based; settings: 18 hours at 35° C.
In short: as §1

Streptococcus sp. = test: as above; format: cell-based; settings: broth dilution, 18 hours at 35° C.
In short: as §1

Staphylococcus sp. = test: as above; format: cell-based; settings: broth dilution, 18 hours at 35° C.
In short: as §1

[1] = test system: Staphylococcus aureus-SMITH (GC 4543); test: acute lethal infection in mice; format: in vivo; settings: acute lethal infection, female CD-1 mice, intraperitoneal challenge, intravenous 30 min. after infection, 7 day survival
In short: (§2)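 Mice (female CD-1, 20+/−2 gm) receive bacteria ip in broth or hog gastric mucin, then test agent iv after 30 min. Median effective dose is calculated from 7 day survival pooled across 3 tests.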

[2] = test system: Enterococcus faecalis (GC 6189); test: acute lethal infection in mice; format: in vivo; settings: female CD-1 mice, intraperitoneal challenge, intravenous 30 min. after infection, 7 day survival
In short: as §2

Cc1ccc(CC2OCC3OC(OC4C(CO)OC(Oc5ccc(CC6NC(=O)C(C(C)c7ccccc7)NC(=O)CNC(=O)C(CO)NC(=O)C(C(O)C7CNC(=N)N7C7OC(CO)C(O)C(O)C7O)NC(=O)C(C(O)C7CNC(=N)N7)NC6=O)cc5)C(O)C4O)C(O)C(O)C3O2)cc1 (stereo not drawn) [Example 119, Cyclo[glycyl-β-methylphenylalanyl-O-[4-O-[4,6-O-(4-methylphenethylidene)hexopyranosyl]-hexopyranosyl]tyrosyl-3-(2-iminoimidazolidin-4-yl)seryl-3-(3-hexopyranosyl-2-iminoimidazolidin-4-yl)serylseryl]]
0.19 mg/kg: median effective dose (ED50), Staphylococcus aureus-SMITH (GC 4543) [1]
0.41 mg/kg: median effective dose (ED50), Enterococcus faecalis (GC 6189) [2]
<0.5 µg/mL: MIC Streptococcus agalactiae (GC 4564) (Streptococcus sp.; Streptococcus agalactiae (GC 4564)) | MIC Streptococcus pneumoniae (ATCC 6301) (Streptococcus sp.; Streptococcus pneumoniae (ATCC 6301)) | MIC Streptococcus pneumoniae (GC 1894) (Streptococcus sp.; Streptococcus pneumoniae (GC 1894)) | MIC Streptococcus pyogenes (GC 4563) (Streptococcus sp.; Streptococcus pyogenes (GC 4563)) | MIC Streptococcus pneumoniae (ATCC 6301) (Streptococcus sp.; strain ATCC 6301) | MIC Streptococcus pneumoniae (GC 1894) (Streptococcus sp.; strain GC 1894) | MIC Streptococcus pyogenes (GC 4563) (Streptococcus sp.; strain GC 4563) | MIC Streptococcus agalactiae (GC 4564) (Streptococcus sp.; strain GC 4564) | MIC Coagulase Negative Staphylococcus (GC 6257) (Staphylococcus sp.) | MIC Coagulase Negative Staphylococcus (GC 6257) (Staphylococcus sp.; strain GC 6257)
1 µg/mL: MIC Enterococcus faecium (GC 4557) (Enterococcus sp.; Enterococcus faecium (GC 4557)) | MIC Enterococcus faecium (GC 4557) (Enterococcus sp.; strain GC 4557) | MIC Escherichia coli (GC 4560) (Escherichia coli; strain GC 4560) | MIC Streptococcus pneumoniae (GC 4565) (Streptococcus sp.; Streptococcus pneumoniae (GC 4565)) | MIC Streptococcus pneumoniae (GC 4565) (Streptococcus sp.; strain GC 4565) | MIC Coagulase Negative Staphylococcus (GC 4547) (Staphylococcus sp.) | MIC Coagulase Negative Staphylococcus (GC 4548) (Staphylococcus sp.) | MIC Coagulase Negative Staphylococcus (GC 4549) (Staphylococcus sp.) | MIC Coagulase Negative Staphylococcus (GC 4551) (Staphylococcus sp.) | MIC Staphylococcus aureus (ATCC 29213) (Staphylococcus sp.) | MIC Staphylococcus aureus (GC 1131) (Staphylococcus sp.) | MIC Staphylococcus aureus (GC 3051) (Staphylococcus sp.) | MIC Staphylococcus aureus (GC 4541) (Staphylococcus sp.) | MIC Staphylococcus aureus (GC 4542) (Staphylococcus sp.) | MIC Staphylococcus aureus (GC 4544) (Staphylococcus sp.) | MIC Staphylococcus aureus (GC 4545) (Staphylococcus sp.) | MIC Staphylococcus aureus-SMITH (GC 4543) (Staphylococcus sp.) | MIC Staphylococcus haemolyticus (GC 4546) (Staphylococcus sp.) | MIC Staphylococcus aureus (GC 1131) (Staphylococcus sp.; inoculum 5×10^5 CFU/mL, strain GC 1131) | MIC Staphylococcus aureus (ATCC 29213) (Staphylococcus sp.; strain ATCC 29213) | MIC Staphylococcus aureus (GC 3051) (Staphylococcus sp.; strain GC 3051) | MIC Staphylococcus aureus (GC 4541) (Staphylococcus sp.; strain GC 4541) | MIC Staphylococcus aureus (GC 4542) (Staphylococcus sp.; strain GC 4542) | MIC Staphylococcus aureus (GC 4544) (Staphylococcus sp.; strain GC 4544) | MIC Staphylococcus aureus (GC 4545) (Staphylococcus sp.; strain GC 4545) | MIC Staphylococcus haemolyticus (GC 4546) (Staphylococcus sp.; strain GC 4546) | MIC Coagulase Negative Staphylococcus (GC 4547) (Staphylococcus sp.; strain GC 4547) | MIC Coagulase Negative Staphylococcus (GC 4548) (Staphylococcus sp.; strain GC 4548) | MIC Coagulase Negative Staphylococcus (GC 4549) (Staphylococcus sp.; strain GC 4549) | MIC Coagulase Negative Staphylococcus (GC 4551) (Staphylococcus sp.; strain GC 4551) | MIC Staphylococcus aureus-SMITH (GC 4543) (Staphylococcus sp.; strain SMITH GC 4543)
32 µg/mL: MIC Escherichia coli (ATCC 25922) (Escherichia coli; strain ATCC 25922) | MIC Escherichia coli (GC 4559) (Escherichia coli; strain GC 4559)
2 µg/mL: MIC Enterococcus faecalis (ATCC 29212) (Enterococcus sp.; Enterococcus faecalis (ATCC 29212)) | MIC Enterococcus faecalis (GC 2242) (Enterococcus sp.; Enterococcus faecalis (GC 2242)) | MIC Enterococcus faecalis (GC 2691) (Enterococcus sp.; Enterococcus faecalis (GC 2691)) | MIC Enterococcus faecalis (GC 4552) (Enterococcus sp.; Enterococcus faecalis (GC 4552)) | MIC Enterococcus faecalis (GC 4554) (Enterococcus sp.; Enterococcus faecalis (GC 4554)) | MIC Enterococcus faecalis (GC 6189) (Enterococcus sp.; Enterococcus faecalis (GC 6189)) | MIC Enterococcus faecium (GC 4556) (Enterococcus sp.; Enterococcus faecium (GC 4556)) | MIC Enterococcus faecalis (ATCC 29212) (Enterococcus sp.; strain ATCC 29212) | MIC Enterococcus faecalis (GC 2242) (Enterococcus sp.; strain GC 2242) | MIC Enterococcus faecalis (GC 2691) (Enterococcus sp.; strain GC 2691) | MIC Enterococcus faecalis (GC 4552) (Enterococcus sp.; strain GC 4552) | MIC Enterococcus faecalis (GC 4554) (Enterococcus sp.; strain GC 4554) | MIC Enterococcus faecium (GC 4556) (Enterococcus sp.; strain GC 4556) | MIC Enterococcus faecalis (GC 6189) (Enterococcus sp.; strain GC 6189) | MIC Staphylococcus aureus (GC 3053) (Staphylococcus sp.) | MIC Staphylococcus aureus (GC 3053) (Staphylococcus sp.; strain GC 3053)
4 µg/mL: MIC Enterococcus avium (GC 4558) (Enterococcus sp.; Enterococcus avium (GC 4558)) | MIC Enterococcus faecalis (GC 4553) (Enterococcus sp.; Enterococcus faecalis (GC 4553)) | MIC Enterococcus faecium (GC 2243) (Enterococcus sp.; Enterococcus faecium (GC 2243)) | MIC Enterococcus faecium (GC 2243) (Enterococcus sp.; strain GC 2243) | MIC Enterococcus faecalis (GC 4553) (Enterococcus sp.; strain GC 4553) | MIC Enterococcus avium (GC 4558) (Enterococcus sp.; strain GC 4558)
>64 µg/mL: MIC Enterococcus faecalis (GC 3059) (Enterococcus sp.; Enterococcus faecalis (GC 3059)) | MIC Enterococcus faecalis (GC 3059) (Enterococcus sp.; strain GC 3059)
